Consider one compound from ChEMBL document CHEMBL4354864, “Bicyclic α-Iminophosphonates as High Affinity Imidazoline I2 Receptor Ligands for Alzheimer's Disease” (J Med Chem, 2020).

The pKi is −log10 of the Ki, conventionally taken in molar units. One may read the IC50 as the concentration that inhibits the measured activity by half.

Data set [1] is described as follows: Displacement of [3H]2-BFI from I2IR in Sprague-Dawley rat brain cortex incubated for 45 mins by liquid scintillation spectrometry.
A short description of data set [2]: Displacement of [3H]2-BFI from I2IR in Swiss mouse brain cortex incubated for 45 mins by liquid scintillation spectrometry. In general terms: In a radioligand displacement assay an active substance lowers the binding of a labelled ligand.
For data set [3], the system named is Vero. In words: Cytotoxicity against monkey Vero cells assessed as effect on cell morphology at 100 uM incubated for 3 to 5 days by microscopic analysis. Format: cell-based. As to conditions: chlorocebus sabaeus.
Data set [4] deals with MDCK. Put plainly: Cytotoxicity against dog MDCK cells assessed as effect on cell morphology at 100 uM incubated for 3 to 5 days by microscopic analysis. Format: cell-based, Canis lupus familiaris.
Data set [5] deals with HeLa. Put plainly: Cytotoxicity against human HeLa cells assessed as reduction in cell viability at 100 uM incubated for 3 to 5 days by colorimetric analysis. Format: cell-based.
Data set [6] is described as follows: Stability in rat liver microsomes at 5 uM incubated for 60 mins by UPLC-MS/MS analysis. Format: ADME, Microsome. Conditions: 1 h. (Microsomes from liver hold many membrane-bound enzymes, among them those of drug oxidation.)
Data set [7] in a line: Stability in mouse liver microsomes at 5 uM incubated for 60 mins by UPLC-MS/MS analysis. Format: ADME, Microsome. Conditions: 1 h.
The target in data set [8] is T1, Cholecystokinin receptor type A (Homo sapiens, UniProt P32238).
T1 sequence (P32238 whole entry): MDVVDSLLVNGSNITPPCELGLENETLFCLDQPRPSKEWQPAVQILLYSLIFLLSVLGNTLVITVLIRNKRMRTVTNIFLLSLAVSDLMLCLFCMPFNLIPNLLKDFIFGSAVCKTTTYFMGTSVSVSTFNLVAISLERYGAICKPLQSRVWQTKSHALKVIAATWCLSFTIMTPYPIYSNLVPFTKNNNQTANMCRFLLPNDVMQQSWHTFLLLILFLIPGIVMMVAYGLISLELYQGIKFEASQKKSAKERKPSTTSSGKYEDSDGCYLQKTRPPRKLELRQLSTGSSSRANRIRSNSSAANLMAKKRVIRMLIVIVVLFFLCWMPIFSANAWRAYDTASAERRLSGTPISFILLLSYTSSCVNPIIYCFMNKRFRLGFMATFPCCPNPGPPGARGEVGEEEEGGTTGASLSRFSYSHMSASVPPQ
Put plainly: Displacement of [125I]CCK-8s from human CCKA incubated for 60 mins by scintillation counting method.

Data set [9] has as its system Mus musculus. In words: Cognitive enhancing effect in mouse model of 5xFAD assessed as increase in recognition memory at 5 mg/kg, po administered for 28 days and measured after 2 hrs of last dosage by novel object recognition test. Format: functional, organism-based.
Data set [10] deals with Mus musculus. Put plainly: Cognitive enhancing effect in mouse model of 5xFAD assessed as increase in recognition memory at 5 mg/kg, po administered for 28 days and measured after 24 hrs of last dosage by novel object recognition test. Format: functional, organism-based.
Data set [11] has as its system Mus musculus. In words: Antineuroinflammatory activity in mouse model of 5xFAD assessed as reduction in Cxcl10 expression at 5 mg/kg, po administered for 4 weeks by qRT-PCR analysis. Format: functional, organism-based. (Quantitative PCR measures a nucleic acid by following its amplification.)
The subject of data set [12] is Mus musculus. In words: Antineuroinflammatory activity in mouse model of 5xFAD assessed as effect on Hmox1 expression at 5 mg/kg, po administered for 4 weeks by qRT-PCR analysis. It is filed as functional, organism-based.

Structures are written as SMILES. Calls of active or inactive are those of the source. The rule behind the calls is not given here.

For the compound `CCOP(=O)(OCC)C1(c2ccccc2)N=CC2C(=O)N(c3ccc(F)c(Cl)c3)C(=O)C21` (racemic), the pKi was 6.92 in [1] and 6.41 in [2]. In addition, the Activity result in data set [3], in data set [4] and in data set [5] was “Non-Toxic” throughout. The Stability result in data set [6] and in data set [7] was “Stable” in each case. The same compound yielded an IC50 in [8] of 5.94 µM. In addition, the result in data set [9], in [10], in [11] and in data set [12] was Active.
